Reference: patent US8673289B2, “Attenuated uracil auxotroph of an apicomplexan and use thereof” (priority 2007, dated 2014)
Changes are numbered by the printed parent chain. Numbers in names are those of the source. Where two headings read alike, the source gives them in different places.

Columns and labels:
wild-type T. gondii = assay: labeling of parasites with [3H]pyrimidines (pyrimidine salvage); assay type: cell-based, Toxoplasma gondii; conditions: parasites grown in host cells
Description: Initial experiments primarily involved an enzymatic analysis of drug resistant mutants and the incorporation of various pyrimidine analogs into T. gondii RNA and DNA as an indication of pyrimidine salvage when parasites were grown in either normal host or mutant host cells. All biochemical communications between the parasite and host cells cross the vacuolar membrane which is now known to contain “pores” that permit the passage of nucleobases ranging in molecular mass from 112 daltons up to 244 daltons. The size of the pores is estimated to be approximately 1500 daltons. A T. gondii mutant resistant to 5-fluorodeoxyuridine (FUDR-1) had lost uracil phosphoribosyltransferase (UPRT), an enzyme which is absent in normal host cells (Pfefferkorn (1978) Expt. Parasitol. 44:26-35). […] FUDR-1 mutant parasites were not labeled with [^3H]deoxyuridine. […] FUDR-1 mutant parasites were not labeled with [^3H]uridine. […] FUDR-1 (UPRT knock-out) parasites were not labeled with [^3H]uracil.
Similarly, since uracil only labels the parasite, due to the parasite UPRT, which is absent in the host, the pyrimidine pools of the parasite are also unavailable to the host. Thus, there is no detectable pyrimidine traffic detected between the parasite and host.

cps1 and cps2 mutants = assay: pyrimidine dependence of cps1 and cps2 replication and plaque formation; assay type: cell-based, Toxoplasma gondii; conditions: relatively low (thymine, thymidine: moderate) concentrations in medium
From the text: However, all of these mutants are somewhat “leaky” in that there was not an absolute growth (replication) dependence on uracil addition to the growth medium for replication. Each of these mutants grows at a moderate (½ of normal) growth rate for the first 2 days following infection of a host cell producing vacuoles that contained 16 to 32 parasites by 3 days post infection. In contrast, RH parasites are lysed out of their primary vacuoles at this time (3 days, >64 parasites). However, the cps mutants slow after 3 days and many parasites never (about ⅓) break out of their primary vacuole. If the primary vacuole breaks, a few parasites can be detected at the site of infection but the infection site always involves a small zone of infection that never forms a visible plaque in a standard 7 day plaque assay. To quantitate growth of these mutants, HFF flasks were inoculated with […] or cps2 parasites (about a multiplicity of infection (MOI) of 1 parasite per 20 HFF cells). After 2 hours of attachment and invasion (all of these mutants have normal attachment and invasion phenotypes as scored by counting percent entered parasites into host cells as a function of time post-inoculation), different concentrations of different pyrimidine compound was added to parallel infected HFF flasks. As a function of time post pyrimidine addition (t=0 hour) the number of parasites per vacuole was scored for 50 vacuoles as described by Fox et al. ((1999) supra). The number of parasite doublings was calculated based on 1 parasite entering each primary vacuole. Thus, 1 doubling=2 parasites per vacuole, 3 doublings=8 parasites per vacuole, and 5 doublings=32 parasites per vacuole. The pyrimidine dependence of cps1 and cps2 replication (doublings of parasites in the vacuole) was plotted graphically. […] The response to thymine and thymidine was additionally informative about the cause of the growth defect in cps1 and cps2. […] This is believed to be caused by the putative defect in the cps1 and cps2 mutants which is a reduced “pool” size of UMP. If UMP pools (ultimately used for RNA and DNA synthesis) are lowered it follows that a resulting decrease in TMP pools is expected since UMP is the precursor of TMP in T. gondii and all other apicomplexan parasites which normally lack TK activity. However, since cps1 and cps2 now express a TK activity carried into the parasite by the p53KOX3-1R plasmid, exemplified by sensitivity of these mutants to ganciclovir (specific to HSV TK), feeding parasites either thymine or thymidine is expected to increase TMP pools. Thus, it appears that moderate levels of thymine or thymidine partially rescue growth of cps1 and cps2 by restoring TMP pools. […] Since the parasite has no mechanism to convert TMP back to UMP there is still a defect in the UMP pool in cps1 and cps2 even with added thymine or thymidine and rescue is never complete. The ability of cps1 and cps2 mutants to form plaques on HFF monolayers in the standard 7 day assay paralleled the pyrimidine dependence of parasite replication in vacuoles.
The cps1 and cps2 mutants were inoculated intraperitoneally (i.p.) into balb/c mice to measure parasite virulence compared to virulent RH parasites. Both mutant cps1 and cps2 had equal virulence as RH parasites in balb/c mice (Jackson Labs), killing all mice within 10 days of i.p. inoculation (group size was four mice per parasite strain). Only 100 parasites (˜50 PFU) of each parasite strain was needed to kill all mice in each group. This pattern of virulence can be understood by re-examining the pyrimidine dependence of cps1 and cps2 growth. Uridine is believed to be the pyrimidine responsible for virulence of cps1 and cps2 in mice. Only 5 μM uridine completely rescues normal plaque size of cps1 and cps2 in vitro. Plasma concentrations of uridine in mice are approximately 5 to 10 μM.

cps1-1 and cps2-1 = assay: pyrimidine rescue of cps1-1 and cps2-1 replication and plaque formation; assay type: cell-based, Toxoplasma gondii; conditions: 36-hour replication assay, HFF
Description: No pyrimidine compound at less than 25 μM could rescue plaque formation of cps1-1 or cps2-1. […] Uridine was quite poor at rescue of plaque formation in cps1-1 and cps2-1.
A more detailed growth response to pyrimidine, measured as parasite replications (doublings) was performed for cps1-1 and cps2-1 and compared to the results previously obtained for […]. […] Uridine rescue was poor, with a slow restoration of growth at very high amounts, >400 μM. Deoxyuridine rescue was significant, but again, full growth rate was not restored at any concentration of deoxyuridine. Rescue with uracil was robust, but only in a limited range of concentration. Full restoration of growth rate in cps1-1 and cps2-1 was possible only with uracil added between 200 and 400 μM. […] This phenotype can only be observed in T. gondii pyrimidine auxotroph mutants, not in wild-type parasites with intact de novo pyrimidine synthesis pathways.
The pyrimidine growth dependence of mutant cps1-1 on the pyrimidine salvage pathway was further documented in thymidine interference experiments. Mutant cps1-1 plaques well in 250 μM uracil or deoxyuridine, but not in 1000 μM thymidine. Since thymidine at 1000 μM is known to inhibit approximately 90% of the parasite nucleoside phosphorylase activity specific for cleavage of deoxyuridine (Iltzsch, (1993) J. Euk. Micro. 40:24-28), growth of cps1-1 was tested in combinations of 1000 μM thymidine and 250 μM uracil or 250 μM deoxyuridine. All pyrimidine salvage in T. gondii must pass through uracil and UPRT conversion of uracil to UMP. In contrast, thymidine has no effect on UPRT activity. Thus, if growth of cps1-1 were dependent on deoxyuridine supplementation then replication in this condition may be inhibited by co-supplementing with 1000 μM thymidine. […] Thus, when cps1-1 is grown in deoxyuridine the parasite strictly requires nucleoside phosphorylase activity to cleave deoxyuridine for growth. […] Thus, cps1-1 and cps2-1 rely strictly on pyrimidine salvage enzymes for growth and further, the HFF host cell in vitro cannot supply sufficient pyrimidines for growth of cps1-1 or cps2-1. […] Such potential inhibitors can only be identified using a pyrimidine auxotroph such as provided in the instant invention.
To assess reversion, 10^6 to 10^7 cps1-1 or cps2-1 parasites were periodically inoculated into HFF flasks supplemented with 5 μM uridine. This concentration of uridine is sufficient to rescue the parent strains (cps1 and cps2) of cps1-1 and cps2-1.

E. coli CPS = conditions: cited from earlier work

## Nc1ccn([C@@H]2O[C@H](CO)[C@@H](O)[C@H]2O)c(=O)n1 [cytidine]
wild-type T. gondii
  incorporation of [3H]-labeled pyrimidine into wild-type parasites: did not incorporate
cps1 and cps2 mutants
  rescue of growth rate / replication of cps1 and cps2: completely rescued
cps1-1 and cps2-1
  rescue of replication (doublings) of cps1-1 and cps2-1: remained as a single non-replicated parasite

## Nc1cc[nH]c(=O)n1 [cytosine]
wild-type T. gondii
  incorporation of [3H]-labeled pyrimidine into wild-type parasites: did not incorporate
cps1 and cps2 mutants
  rescue of growth rate / replication of cps1 and cps2: did not rescue at all
cps1-1 and cps2-1
  rescue of replication (doublings) of cps1-1 and cps2-1: remained as a single non-replicated parasite

## Nc1ccn([C@H]2C[C@H](O)[C@@H](CO)O2)c(=O)n1 [deoxycytidine]
cps1 and cps2 mutants
  rescue of growth rate / replication of cps1 and cps2: completely rescued
cps1-1 and cps2-1
  rescue of replication (doublings) of cps1-1 and cps2-1: remained as a single non-replicated parasite

## O=C(O)c1cc(=O)[nH]c(=O)[nH]1 [orotic acid]
wild-type T. gondii
  incorporation of [3H]-labeled pyrimidine into wild-type parasites: did not incorporate

B1: E. c. G359F: E. coli CPS with ammonia tunnel wall mutation G359F (protein, UniProt P0A6F1 1-382; P00968 2-1073, looked up, variant G359F)
Carbamoyl phosphate synthase … 1: MIKSALLVLEDGTQFHGRAIGATGSAVGEVVFNTSMTGYQEILTDPSYSRQIVTLTYPHIGNVGTNDADEESSQVHAQGLVIRDLPLIASNFRNTEDLSSYLKRHNIVAIADIDTRKLTRLLREKGAQNGCIIAGDNPDAALALEKARAFPGLNGMDLAKEVTTAEAYSWTQGSWTLTGGLPEAKKEDELPFHVVAYDFGAKRNILRMLVDRGCRLTIVPAQTSAEDVLKMNPDGIFLSNGPGDPAPCDYAITAIQKFLETDIPVFGICLGHQLLALASGAKTVKMKFGHHGGNHPVKDVEKNVVMITAQNHGFAVDEATLPANLRVTHKSLFDGTLQGIHRTDKPAFSFQGHPEASPFPHDAAPLFDHFIELIEQYRKTAK
Carbamoyl phosphate synthase … 2: PKRTDIKSILILGAGPIVIGQACEFDYSGAQACKALREEGYRVILVNSNPATIMTDPEMADATYIEPIHWEVVRKIIEKERPDAVLPTMGGQTALNCALELERQGVLEEFGVTMIGATADAIDKAEDRRRFDVAMKKIGLETARSGIAHTMEEALAVAADVGFPCIIRPSFTMGGSGGGIAYNREEFEEICARGLDLSPTKELLIDESLIGWKEYEMEVVRDKNDNCIIVCSIENFDAMGIHTGDSITVAPAQTLTDKEYQIMRNASMAVLREIGVETGGSNVQFAVNPKNGRLIVIEMNPRVSRSSALASKATGFPIAKVAAKLAVGYTLDELMNDITGGRTPASFEPSIDYVVTKIPRFNFEKFAGANDRLTTQMKSVGEVMAIGRTQQESLQKALRGLEVGATGFDPKVSLDDPEALTKIRRELKDAGADRIWYIADAFRAGLSVDGVFNLTNIDRWFLVQIEELVRLEEKVAEVGITGLNADFLRQLKRKGFADARLAKLAGVREAEIRKLRDQYDLHPVYKRVDTCAAEFATDTAYMYSTYEEECEANPSTDREKIMVLGGGPNRIGQGIEFDYCCVHASLALREDGYETIMVNCNPETVSTDYDTSDRLYFEPVTLEDVLEIVRIEKPKGVIVQYGGQTPLKLARALEAAGVPVIGTSPDAIDRAEDRERFQHAVERLKLKQPANATVTAIEMAVEKAKEIGYPLVVRPSYVLGGRAMEIVYDEADLRRYFQTAVSVSNDAPVLLDHFLDDAVEVDVDAICDGEMVLIGGIMEHIEQAGVHSGDSACSLPAYTLSQEIQDVMRQQVQKLAFELQVRGLMNVQFAVKNNEVYLIEVNPRAARTVPFVSKATGVPLAKVAARVMAGKSLAEQGVTKEVIPPYYSVKEVVLPFNKFPGVDPLLGPEMRSTGEVMGVGRTFAEAFAKAQLGSNSTMKKHGRALLSVREGDKERVVDLAAKLLKQGFELDATHGTAIVLGEAGINPRLVNKVHEGRPHIQDRIKNGEYTYIINTTSGRRAIEDSRVIRRSALQYKVHYDTTLNGGFATAMALNADATEKVISVQEMHAQIK
modifications: mutation in small subunit
E. coli CPS; effect on GATase-CPS coupling
  Effect on CPS or CPSII: Uncouples GATase & CPS

B2: E. c. E761A: E. coli CPS with K-loop mutation E761A (protein, UniProt P0A6F1 1-382; P00968 2-1073, looked up, variant E761A)
Carbamoyl phosphate synthase … 1: B1 Carbamoyl phosphate synthase … 1 with F359G
Carbamoyl phosphate synthase … 2: B1 Carbamoyl phosphate synthase … 2 with E760A
modifications: mutation in large subunit
E. coli CPS; effect on UMP repression
  Effect on CPS or CPSII: Abolishes UMP repression
E. coli CPS; effect on ornithine activation
  Effect on CPS or CPSII: Abolishes ornithine activation

B3: E. c. H781K: E. coli CPS with K-loop mutation H781K (protein, UniProt P0A6F1 1-382; P00968 2-1073, looked up, variant H781K)
Carbamoyl phosphate synthase … 1: B1 Carbamoyl phosphate synthase … 1 with F359G
Carbamoyl phosphate synthase … 2: B1 Carbamoyl phosphate synthase … 2 with H780K
modifications: mutation in large subunit
E. coli CPS; effect on UMP repression
  Effect on CPS or CPSII: Reduces UMP repression
E. coli CPS; effect on ornithine activation
  Effect on CPS or CPSII: Reduces ornithine activation

B4: E. c. T974A: E. coli CPS with regulatory domain mutation T974A (protein, UniProt P0A6F1 1-382; P00968 2-1073, looked up, variant T974A)
Carbamoyl phosphate synthase … 1: B1 Carbamoyl phosphate synthase … 1 with F359G
Carbamoyl phosphate synthase … 2: B1 Carbamoyl phosphate synthase … 2 with T973A
modifications: mutation in large subunit
E. coli CPS; effect on IMP activation
  Effect on CPS or CPSII: Abolishes IMP activation
E. coli CPS; effect on UMP repression
  Effect on CPS or CPSII: Abolishes UMP repression
E. coli CPS; effect on ornithine activation
  Effect on CPS or CPSII: Reduces ornithine activation

B5: E. c. C269A: E. coli CPS with catalytic triad mutation C269A (protein, UniProt P0A6F1 1-382; P00968 2-1073, looked up, variant C269A)
Carbamoyl phosphate synthase … 1: B1 Carbamoyl phosphate synthase … 1 with C269A, F359G
Carbamoyl phosphate synthase … 2: B1 Carbamoyl phosphate synthase … 2
modifications: mutation in small subunit
E. coli CPS
  Effect on CPS or CPSII: Abolishes GATase activity
